As usually defined, the Kd is the constant that tells how readily two partners part at equilibrium. The term IC50 denotes the point on the concentration scale where inhibition reaches its midpoint. The low end stands for greater potency in that assay, the high end for weaker potency in that assay.

Each structure is given as a SMILES string.

One data set deals with c-Abl (Homo sapiens, UniProt P00519). Nature of the data set: Competition binding KINOMEscan assay (DiscoverX). To be noted: read-out: Kd, Binding Assay hAbl. Here is the method:
The binding affinity of vodobatinib to c-Abl was determined in a competition binding KINOMETM scan assay. […] Liganded beads were blocked with excess biotin, and washed with blocking buffer (SEA BLOCK Pierce), with 1% BSA, 0.05% Tween 20, 1 mM DTT) to remove unbound ligand and reduce non-specific binding. […] The kinase concentration in the eluates was measured by qPCR. The kinase concentrations in test compound treated wells were compared with that in the non-treated wells across the concentration range to generate the Kd values.

The nature of data set [1]: Exposure on transition from capsule to powder, phase 2 study in early PD. In kind it is in vivo, human. To be noted: on average. Here is the method:
A phase 2, randomized, double-blind, placebo-controlled study of vodobatinib in approximately 504 subjects with early Parkinson's disease is ongoing. The subjects are being administered a low dose (96 mg capsule or 192 mg powder of vodobatinib) or high dose (192 mg capsule or 384 mg powder of vodobatinib). The subjects are initially administered the capsule and then transitioned to the powder. […] The objective of the study is to determine if vodobatinib reduces the rate of progression of early-stage Parkinson's disease over 40 weeks, as defined by the sum of the MDS-UPDRS (Movement Disorder Society-Unified Parkinson's Disease Rating Scale) Parts 2 and 3 scores.

In the next data set the target is Arg (Homo sapiens, UniProt P42684). Nature of the data set: Biochemical kinase assay. The text has this: Conventional biochemical kinase assays, using radioactivity and fluorescence as readouts, were used to derive half maximal-inhibitory concentrations (IC50) values.
Chain of Arg (P42684 whole entry): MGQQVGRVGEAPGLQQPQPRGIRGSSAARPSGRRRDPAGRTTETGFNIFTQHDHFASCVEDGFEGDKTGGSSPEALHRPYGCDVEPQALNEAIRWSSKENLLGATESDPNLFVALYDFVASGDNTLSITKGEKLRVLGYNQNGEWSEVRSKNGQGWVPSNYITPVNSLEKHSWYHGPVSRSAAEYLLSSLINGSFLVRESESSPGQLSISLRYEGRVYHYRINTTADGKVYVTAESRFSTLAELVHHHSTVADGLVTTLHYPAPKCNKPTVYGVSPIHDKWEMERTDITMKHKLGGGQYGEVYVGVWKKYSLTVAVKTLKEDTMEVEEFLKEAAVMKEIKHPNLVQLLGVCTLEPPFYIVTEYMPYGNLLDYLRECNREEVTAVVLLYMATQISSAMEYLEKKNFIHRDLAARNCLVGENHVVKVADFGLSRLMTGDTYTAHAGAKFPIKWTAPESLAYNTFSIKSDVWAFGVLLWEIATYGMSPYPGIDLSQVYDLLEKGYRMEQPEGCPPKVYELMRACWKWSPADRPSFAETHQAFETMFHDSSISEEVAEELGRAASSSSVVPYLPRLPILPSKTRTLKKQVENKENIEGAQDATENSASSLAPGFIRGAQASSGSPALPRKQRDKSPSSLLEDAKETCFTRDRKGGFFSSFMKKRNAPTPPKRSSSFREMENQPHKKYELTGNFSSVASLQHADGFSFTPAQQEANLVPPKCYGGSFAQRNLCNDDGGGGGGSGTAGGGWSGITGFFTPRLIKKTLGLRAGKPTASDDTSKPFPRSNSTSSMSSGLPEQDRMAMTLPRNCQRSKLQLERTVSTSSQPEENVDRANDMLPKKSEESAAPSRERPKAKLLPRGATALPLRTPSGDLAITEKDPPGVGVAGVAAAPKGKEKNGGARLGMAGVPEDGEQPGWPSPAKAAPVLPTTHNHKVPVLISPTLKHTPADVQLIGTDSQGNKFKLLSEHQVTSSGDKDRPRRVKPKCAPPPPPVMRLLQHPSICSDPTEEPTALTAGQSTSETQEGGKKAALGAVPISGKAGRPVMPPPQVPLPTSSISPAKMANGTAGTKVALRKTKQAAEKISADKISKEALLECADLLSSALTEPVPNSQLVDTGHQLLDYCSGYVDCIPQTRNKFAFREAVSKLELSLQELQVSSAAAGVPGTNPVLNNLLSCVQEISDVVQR

Chain of c-Abl (P00519 whole entry): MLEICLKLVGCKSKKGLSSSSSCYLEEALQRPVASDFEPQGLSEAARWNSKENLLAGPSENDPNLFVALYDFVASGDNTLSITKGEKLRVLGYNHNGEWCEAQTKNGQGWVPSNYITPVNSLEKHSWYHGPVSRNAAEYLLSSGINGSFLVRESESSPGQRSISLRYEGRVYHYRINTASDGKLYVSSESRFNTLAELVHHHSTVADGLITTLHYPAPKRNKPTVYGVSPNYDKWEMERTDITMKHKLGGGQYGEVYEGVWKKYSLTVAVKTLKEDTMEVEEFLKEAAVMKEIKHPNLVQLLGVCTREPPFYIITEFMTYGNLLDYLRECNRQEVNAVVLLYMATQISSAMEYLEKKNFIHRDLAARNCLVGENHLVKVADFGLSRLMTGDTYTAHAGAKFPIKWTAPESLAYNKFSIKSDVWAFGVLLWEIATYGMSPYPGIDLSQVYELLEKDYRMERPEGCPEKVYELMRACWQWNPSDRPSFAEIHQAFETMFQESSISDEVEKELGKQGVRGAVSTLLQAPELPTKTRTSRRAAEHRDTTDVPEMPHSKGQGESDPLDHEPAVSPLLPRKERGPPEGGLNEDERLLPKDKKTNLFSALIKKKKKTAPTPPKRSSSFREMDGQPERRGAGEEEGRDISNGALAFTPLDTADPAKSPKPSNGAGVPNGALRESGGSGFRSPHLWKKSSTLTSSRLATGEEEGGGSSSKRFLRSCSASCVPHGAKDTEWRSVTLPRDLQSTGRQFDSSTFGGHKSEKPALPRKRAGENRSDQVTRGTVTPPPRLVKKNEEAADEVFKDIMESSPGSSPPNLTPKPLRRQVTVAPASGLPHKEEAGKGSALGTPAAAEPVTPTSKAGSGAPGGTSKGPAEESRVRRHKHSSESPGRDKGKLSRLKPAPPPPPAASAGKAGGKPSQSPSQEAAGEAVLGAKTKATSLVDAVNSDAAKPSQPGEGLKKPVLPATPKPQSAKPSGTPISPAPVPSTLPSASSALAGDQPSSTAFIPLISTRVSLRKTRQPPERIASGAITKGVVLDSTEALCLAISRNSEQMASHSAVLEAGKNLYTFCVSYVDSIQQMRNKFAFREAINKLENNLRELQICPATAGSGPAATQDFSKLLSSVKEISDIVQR

For the molecule `Cc1ccc(C(=O)NNC(=O)c2c(C)cccc2Cl)cc1C#Cc1cnc2ccccc2c1` [N′-(2-chloro-6-methylbenzoyl)-4-methyl-3-[2-(3-quinolyl)ethynyl]-benzohydrazide], the Kd on c-Abl amounted to 980 pM. In addition, the “increase in exposure, capsule to powder (96 to 192 mg or 192 to 384 mg)” value in data set [1] is “approximately 1.4 fold”. At Arg, this molecule yielded an IC50 of 800 pM.

These data come from patent US20250275953A1, “VODOBATINIB FOR REDUCING PROGRESSION OF PARKINSON'S DISEASE” (Sun Pharma Advanced Research Company Ltd., priority 2022, published 2025).
